Consider 13 compounds from patent publication US10602758B2, “Methods and compositions for improved taste quality” (Almendra Pte. Ltd, priority 2018, dated 2020).

Peptide text beside a SMILES is read from it.

For data set [1] the following is noted: cited from earlier work; for sweetness potency: relative to sucrose; for sweetness potency (sensory evaluations): more potent than sucrose, Crammer and Ikan 1986.
The test system of data set [2] is human taste testers. Kind of data set: Sensory flavor profile analysis, Example 3.3: KCl, MgCl2 or CaCl2 individually at 30 mM with REBA in Citric Acid Buffer (Table 9). It is filed as in vivo. To be noted: used individually at 30 mM.
Description: (§1) Representative formulations within the scope of the disclosed formulations were prepared and subjected to sensory testing by the methods described above in the section entitled Testing Methodology, where formulations are rated on a 0-15 scales for the Taste Attributes: Sweetness Intensity (SI), Saltiness Intensity (SaI), Sourness Intensity (SoI), Bitterness Intensity (BI), Astringency Intensity (AI), Body/Mouthfeel Intensity (B/MF) and Sweetness Linger (SL). And, in addition, formulations are rated for the additional Taste Attributes of Sweetness Appearance Time (AT) and Sweetness Desensitization (SD). AT was rated by the verbal descriptors Rapid (R), Delay (D) or SD (Significant Delay) and SD was rated by the verbal descriptors None (N), Slight (S) or Medium (M). In sensory test sessions, the number of samples evaluated was limited to 6. In the initial phase of formulation screening, testing was carried out in triplicate with a single subject extensively experienced in the technique of flavor profile analysis. Following formulation screening, testing on promising formulations was carried out with a trained panel as described above. […]
This study assessed the effect of K^+, Mg^2+, and Ca^2+ (from KCl, MgCl2, and CaCl2 salts) used individually at 30 mM in a disclosed Taste Modulator Composition on the Appearance Time (AT), Sweetness Linger (SL), Body/Mouthfeel (B/MF) and Sweetness Desensitization (SD) of REBA in Citric Acid Buffer.
The test system of data set [3] is human taste testers. Kind of data set: Sensory flavor profile analysis, Example 3.1: KCl, MgCl2 or CaCl2 individually at <12 mM with REBA in Citric Acid Buffer (Table 7). In kind it is in vivo. To be noted: used individually at <12 mM.
Description: as §1
This study assessed the effect of K^+, Mg^2+, and Ca^2+ (from KCl, MgCl2, and CaCl2 salts) used individually in a disclosed Taste Modulator Composition on the Appearance Time (AT), Sweetness Linger (SL), Body/Mouthfeel (B/MF) and Sweetness Desensitization (SD) of REBA in Citric Acid Buffer at moderate concentrations (i.e., <12 mM).
Data set [4] concerns human taste testers. Kind of data set: Sensory flavor profile analysis, Example 3.2: KCl, MgCl2 or CaCl2 individually at 20 mM with REBA in Citric Acid Buffer (Table 8). In kind it is in vivo. The conditions noted are these: used individually at 20 mM.
Description: as §1
This study assessed the effect of K^+, Mg^2+, and Ca^2+ (from KCl, MgCl2, and CaCl2 salts) used individually at 20 mM in a disclosed Taste Modulator Composition on the Appearance Time (AT), Sweetness Linger (SL), Body/Mouthfeel (B/MF) and Sweetness Desensitization (SD) of REBA in Citric Acid Buffer.
Data set [5] is described as follows: Dissolution of solid REBD in CAB-K buffer, visual inspection. The conditions noted are these: 500 PPM in pH 3.1 CAB-K; after standing overnight (about 20 h). It is filed as physicochemical.
Data set [6] is described as follows: Concentration/Response (C/R) function of sweeteners. In kind it is in vivo. The text has this: In discussion of mid-calorie beverages, it is useful to describe a suitable methodology for definition of the compositions of such caloric/non-caloric sweetener blends. One such system is a previously described Concentration/Response (C/R) function useful for many caloric as well as non-caloric sweeteners (see G. E. DuBois, et al., “A Systematic Study of Concentration-Response Relationships of Sweeteners”, In Sweeteners: Discovery, Molecular Design and Chemoreception, D E Walters, F Orthoefer and G E DuBois, Eds., ACS Symposium Series 450, ACS Books, Washington, D.C., 1990).
The following example serves to show how the C/R function can be utilized in design of a mid-caloric beverage. Assume that the objective is to formulate a 50% calorie-reduced beverage with a blend of sucrose and REBA, where the original full-calorie beverage contained 10.0% sucrose. Assuming there is no synergy between sucrose and REBA, such a blend would require 5.0% sucrose and a concentration of REBA equivalent to 5.0% sucrose in sweetness. The requisite concentration (C) of REBA is easily calculated from its C/R function R=10C/(200+C) as follows: 5.0=10×C/(200+C); and C=200 mg/L.

Data set [7] concerns human taste testers. Description: Sensory Testing Methodology: Sweetness Linger of reference standards in water. In kind it is in vivo. To be noted: 10% Sucrose and 500 PPM REBA, perceived sweetness intensity @ 120 sec. The text has this: In various aspects, the present disclosure pertains to methods of testing the disclosed sweetener compositions, e.g., a sensory methodology or method for sweetener evaluation. In a particular aspect, the sensory methodology used is known as a “Flavor Profile Analysis” as has been previously described (see: B. T. Carr, S. D. Pecore, K. M. Gibes and G. E. DuBois, “Sensory Methods for Sweetener Evaluation”, Chapter 11 In Flavor Measurement, C. T. Ho and C. H. Manley, Eds., Marcel Dekker, New York, N.Y., 1993). The full set of sensory parameters that are assessed in the sensory testing method are: (a) Sweetness Intensity (which can be abbreviated in tables herein as “S”); (b) Sourness Intensity ((which can be abbreviated in tables herein as “So”); (c) Saltiness Intensity (which can be abbreviated in tables herein as “Sa”); (d) Bitterness Intensity (which can be abbreviated in tables herein as “B”); (e) Body/Mouthfeel Intensity (which can be abbreviated in tables herein as “B/MF”); (f) Astringency Intensity (which can be abbreviated in tables herein as “A”); (g) Sweetness Linger (which can be abbreviated in tables herein as “SL”); (h) Sweetness Appearance Time (which can be abbreviated in tables herein as “AT”); and (i) Sweetness Desensitization (which can be abbreviated in tables herein as “SD”). […]

For data set [8] the following is noted: cited from earlier work; for Kd, apparent Sweetener/Receptor dissociation constant / Rm, Maximal Response: from R = Rm x C/(kd + C).

Take `C[C@H](CC[C@@H](O[C@@H]1O[C@H](CO[C@@H]2O[C@H](CO)[C@@H](O)[C@H](O)[C@H]2O)[C@@H](O)[C@H](O)[C@H]1O[C@@H]1O[C@H](CO)[C@@H](O)[C@H](O)[C@H]1O)C(C)(C)O)[C@H]1CC[C@@]2(C)[C@@H]3CC=C4[C@@H](CC[C@H](O[C@@H]5O[C@H](CO[C@@H]6O[C@H](CO)[C@@H](O)[C@H](O)[C@H]6O)[C@@H](O)[C@H](O)[C@H]5O)C4(C)C)[C@]3(C)[C@H](O)C[C@]12C` [mogroside V, mogro-3-O-[β-D-glucopyranosyl (1-6)-β-D-glucopyranoside]-24-O-{[β-D-glucopyranosyl(1-2)]-[?-D-glucopyranosyl(1-6)]-β-D-gluco-pyranoside}]: the sweetness entry in data set [1] (times cane sugar on a weight basis, estimated) is “approximately 250 times”.

For the compound `[Cl-].[K+]` [K^+, Potassium Chloride], the “effect on the AT, SL, B/MF and SD of REBA” value (shortened to “effect … B/MF and SD of REBA”) is given as “do affect” in data set [2], “did not significantly affect” in data set [3] and “modestly affected” in data set [4].

In the case of `C=C1C[C@@]23CC[C@H]4[C@@](C)(CCC[C@@]4(C)C(=O)O[C@@H]4O[C@H](CO)[C@@H](O)[C@H](O)[C@H]4O)[C@@H]2CC[C@]1(O[C@@H]1O[C@H](CO)[C@@H](O)[C@H](O)[C@H]1O[C@@H]1O[C@H](CO)[C@@H](O)[C@H](O)[C@H]1O)C3` [Stevioside], in data set [1], the sweetness potency was 110-270 times.

As to `C=C1C[C@@]23CC[C@H]4[C@@](C)(CCC[C@@]4(C)C(=O)O[C@@H]4O[C@H](CO)[C@@H](O)[C@H](O)[C@H]4O[C@@H]4O[C@H](CO)[C@@H](O)[C@H](O)[C@H]4O)[C@@H]2CC[C@]1(O[C@@H]1O[C@H](CO)[C@@H](O)[C@H](O[C@@H]2O[C@H](CO)[C@@H](O)[C@H](O)[C@H]2O)[C@H]1O[C@@H]1O[C@H](CO)[C@@H](O)[C@H](O)[C@H]1O)C3` [Rebaudioside D], the appearance of solution entry in data set [5] was “still cloudy”.

In the case of `[Cl-].[Cl-].[Mg+2]` [Mg^2+, Magnesium Chloride], the “effect … B/MF and SD of REBA” value in data set [2] is “do affect”; in data set [3], “did not significantly affect”; in data set [4], “modestly affected”.

Turning to `C=C1C[C@@]23CC[C@H]4[C@@](C)(CCC[C@@]4(C)C(=O)O[C@@H]4O[C@H](CO)[C@@H](O)[C@H](O)[C@H]4O)[C@@H]2CC[C@]1(O[C@@H]1O[C@H](CO)[C@@H](O)[C@H](O[C@@H]2O[C@H](CO)[C@@H](O)[C@H](O)[C@H]2O)[C@H]1O[C@@H]1O[C@H](CO)[C@@H](O)[C@H](O)[C@H]1O)C3` [Rebaudioside A], in data set [6] (500 mg/L REBA, from C/R function R=10.0C/(200+C)), the sweetness intensity equivalent was found to be 7.14 % sucrose. Besides, the “requisite concentration (C) equivalent to 5.0% sucrose in sweetness” value in data set [6] (calculated from C/R function R=10C/(200+C)) is given as 200 mg/L. Further, the “SL (Sweetness Linger)” value in data set [7] is recorded as 5. For the same compound, in data set [8], the “Kd, apparent Sweetener/Receptor dissociation constant” value is 200 µg/mL and the “Rm, Maximal Response” value is 10 Sucrose Equivalents of Sweetness. Also, in data set [1], the “sweetness potency (sensory evaluations)” value is given as 350-450 times.

`C=C1C[C@@]23CC[C@H]4[C@@](C)(CCC[C@@]4(C)C(=O)O[C@@H]4O[C@H](CO)[C@@H](O)[C@H](O)[C@H]4O)[C@@H]2CC[C@]1(O[C@@H]1O[C@H](CO)[C@@H](O)[C@H](O)[C@H]1O[C@@H]1O[C@@H](C)[C@H](O)[C@@H](O)[C@H]1O)C3` [Dulcoside A]: in data set [1], the sweetness potency is 30 times.

In the case of `CC1=CC(=O)[N-]S(=O)(=O)O1.[K+]` [Acesulfame-K], in data set [8], the “Kd, apparent Sweetener/Receptor dissociation constant” value was 470 µg/mL and the “Rm, Maximal Response” value is listed as 11.6 Sucrose Equivalents of Sweetness.

`COC(=O)[C@H](Cc1ccccc1)NC(=O)[C@@H](N)CC(=O)O` [Aspartame] (H-Asp-Phe-OMe): in data set [8], the “Kd, apparent Sweetener/Receptor dissociation constant” value was 560 µg/mL and the “Rm, Maximal Response” value is reported as 16.0 Sucrose Equivalents of Sweetness.

In the case of Rebaudioside B, the “sweetness potency (sensory evaluations)” value in data set [1] is reported as 300-350 times.

Turning to `[Ca+2].[Cl-].[Cl-]` [Ca^2+, Calcium Chloride], the “effect … B/MF and SD of REBA” value is “do affect” in data set [2], “did not significantly affect” in data set [3] and “modestly affected” in data set [4].

Regarding `OC[C@H]1O[C@@](CO)(O[C@H]2O[C@H](CO)[C@@H](O)[C@H](O)[C@H]2O)[C@@H](O)[C@@H]1O` [Sucrose, reference compound], in data set [8] (R in Sucrose Equivalents of Sweetness, C in % (w/v) for sugars, in mg/L for HP sweeteners), the “C/R Function” value was “R = C”.

Rebaudioside C: in data set [1], the sweetness potency was 40-60 times.
